The values that follow come from patent US7211573B2, “Malonamide derivatives” (Hoffmann-La Roche Inc., priority 2004, dated 2007).

On to `C[C@H](OC(=O)NCC(F)(F)C(F)(F)F)C(=O)N[C@@H]1C(=O)N(C)c2cc(F)ccc2O[C@@H]1C` [Example 48, (2,2,3,3,3-Pentafluoro-propyl)-carbamic acid (S)-1-((6R,7S)-2-fluoro-6,9-dimethyl-8-oxo-6,7,8,9-tetrahydro-5-oxa-9-aza-benzocyclohepten-7-ylcarbamoyl)-ethyl ester], for which the melting point (in general, the temperature of the solid-liquid transition) is 148 to 150 °C.

The compound `Cc1cccc2c1OC[C@H](NC(=O)C(C)C(=O)NCC(F)(F)C(F)(F)F)C(=O)N2C` (stereo partly drawn) [Example 10b, N-((S)-4,9-Dimethyl-8-oxo-6,7,8,9-tetrahydro-5-oxa-9-aza-benzocyclohepten-7-yl)-2-methyl-N′-(2,2,3,3,3-pentafluoro-propyl)-malonamide] showed a melting point of 107 °C. The result for `CC(C(=O)NCC(F)(F)C(F)(F)F)C(=O)N[C@@H]1C(=O)Nc2cc(F)ccc2O[C@@H]1C` (stereo partly drawn) [Example 23, N-((6R,7S)-2-Fluoro-6-methyl-8-oxo-6,7,8,9-tetrahydro-5-oxa-9-aza-benzocyclohepten-7-yl)-2-methyl-N′-(2,2,3,3,3-pentafluoro-propyl)-malonamide] reads 215 to 216 °C; that for `CC(C(=O)NCC(F)(F)C(F)(F)F)C(=O)N[C@@H]1C(=O)N(C)c2c(F)cccc2O[C@@H]1C` (stereo partly drawn) [Example 37, N-((6R,7S)-1-Fluoro-6,9-dimethyl-8-oxo-6,7,8,9-tetrahydro-5-oxa-9-aza-benzocyclohepten-7-yl)-2-methyl-N′-(2,2,3,3,3-pentafluoro-propyl)-malonamide], 126 to 134 °C. As for `CC(C(=O)NCC(F)(F)C(F)(F)F)C(=O)N[C@@H]1C(=O)N(C)c2cc(F)ccc2O[C@@H]1C` (stereo partly drawn) [Example 38, N-((6R,7S)-2-Fluoro-6,9-dimethyl-8-oxo-6,7,8,9-tetrahydro-5-oxa-9-aza-benzocyclohepten-7-yl)-2-methyl-N′-(2,2,3,3,3-pentafluoro-propyl)-malonamide], the figure is 126 to 134 °C; as for `CCN1C(=O)[C@@H](NC(=O)C(C)C(=O)NCC(F)(F)C(F)(F)F)COc2ccccc21` (stereo partly drawn) [Example 14, N-((S)-9-Ethyl-8-oxo-6,7,8,9-tetrahydro-5-oxa-9-aza-benzocyclohepten-7-yl)-2-methyl-N′-(2,2,3,3,3-pentafluoro-propyl)-malonamide], 152 °C.
